Assay results reported in patent EP3002287B1, “Thiochromeno[2,3-c]quinolin-12-one derivatives and their use as topoisomerase inhibitors” (National Defense Medical Center, priority 2014, dated 2016).
Read-outs that look alike come from different tables or passages of the source.

Tests used:
[1] = test system: PC-3; experiment: MTT assay for cell cytotoxicity; assay type: cell-based, human; conditions: 72 h, at least three independent experiments, read-out: MTT assay (IC50 ± SD) PC-3
Experimental: (§1) All of synthesis compounds were evaluated cell cytotoxicity by using MTT colorimetric assay on PC-3 and DU-145 cell lines. DU-145 and PC-3 are human hormone-refractory (androgen-independent) prostatic cancer cell lines from American Type Culture Collection (HTB-81™, ATCC, Rockville, MD)^125 and Bioresource Collection and Research Center (60122, BCRC, Taiwan)^126, respectively. Two of the "classical" cell lines were cultivated in RPMI-1640 medium supplemented with 5% fetal bovine serum (v/v), 100 U/mL penicillin, and […] streptomycin. Approximately 2 x 10^3 cells were seeded into each well of a 96-well plate and incubated in 5% CO2 at 37 °C for 24 h. To evaluate the in vitro cytotoxicity, all the synthetic compounds were dissolved in DMSO, prepared immediately before the experiments and diluted into the complete medium before being added to each well of a 96-well plate. Each compound was then added to the culture medium for designated various concentrations (0.15, 0.5, 1.5, 5, 15 µM). After 72 h, an amount of 100 µL of MTT (1 mg/mL) was added to each well, and the samples were incubated at 37 °C for 4 h. After removing the MTT solution, 100 µL of DMSO was added to each well and incubated at 37 °C for another 20 mins. The absorbency at 560 nm was measured by using an ELISA reader.
(§2) Results are expressed as mean values of at least three independent experiments. The IC50 values of testing compounds were described in Table 1. Table1. Effects of 10-Chloro-12H-thiochromeno[2,3-c]quinolin -12-one derivatives on cytotoxicity by MTT assay.

[2] = test system: DU-145; experiment: MTT assay for cell cytotoxicity; assay type: cell-based, human; conditions: 72 h, at least three independent experiments, read-out: MTT assay (IC50 ± SD) DU-145
Experimental: as §1, §2

What does the source list for `O=c1c2cc(Cl)ccc2sc2c(NCCCO)nc3ccccc3c12` [Compound N10, 10-Chloro-6-(3-propanolamino)-12H-thiochromeno[2,3-c]quin olin-12-one]?
IC50 [1]: 6.31 ± 4.11 µM; IC50 [2]: 5.94 ± 2.03 µM

How did the IC50 ([1]; Homo sapiens) turn out when `COc1ccc(CNc2nc3ccccc3c3c(=O)c4cc(Cl)ccc4sc23)cc1OC` [Compound N29, 10-Chloro-6-((3,4-dimethoxybenzyl)amino)-12H-thiochromeno [2,3-c]quinolin-12-one] was run?
Its IC50 is 6.2 ± 2.52 µM.

And the IC50 ([2]; Homo sapiens)?
The IC50 was 4.86 ± 0.99 µM.

Which results are given for `O=c1c2cc(Cl)ccc2sc2c(NCc3ccc4c(c3)OCO4)nc3ccccc3c12` [Compound N27, 6-((Benzo[d][1,3]dioxol-5-ylmethyl)amino)-10-chloro-12H-thio chromeno[2,3-c]quinolin-12-one]?
IC50 ([1]; Homo sapiens): > 15 µM; IC50 ([2]; Homo sapiens): 11.8 ± 5.83 µM

Which results are given for `O=c1c2cc(Cl)ccc2sc2c(N3CCCC3)nc3ccccc3c12` [Compound 20, 10-Chloro-6-(pyrrolidin-1-yl)-12H-thiochromeno[2,3-c]quinolin-12-one]?
IC50 ([1]; Homo sapiens): > 15 µM; IC50 ([2]; Homo sapiens): > 15 µM

How did the IC50 ([2]; Homo sapiens) turn out when `COc1cccc2c1C(=O)c1c(O)c3c(c(O)c1C2=O)C[C@@](O)(C(=O)CO)C[C@@H]3O[C@H]1C[C@H](N)[C@H](O)[C@H](C)O1` [Doxorubicin, reference compound] was run?
Its IC50 is 0.12 ± 0.03 µM.

Which results are given for `O=c1c2cc(Cl)ccc2sc2c(NC3CCN(Cc4ccccc4)CC3)nc3ccccc3c12` [Compound N22, 6-((1-Benzylpiperidin-4-yl)amino)-10-chloro-12H-thiochromen o[2,3-c]quinolin-12-one]?
IC50 ([1]; Homo sapiens): 6.47 ± 0.3 µM; IC50 ([2]; Homo sapiens): 8.39 ± 1.84 µM

How did the IC50 ([1]; Homo sapiens) turn out when `CC(C)CC(C)Nc1nc2ccccc2c2c(=O)c3cc(Cl)ccc3sc12` (stereo not drawn) [Compound N13, 10-Chloro-6-((4-methylpentan-2yl)amino)-12H-thiochromeno[2,3-c]quinolin-12-one] was run?
The IC50 was 10.4 ± 2.3 µM.

And the IC50 ([2]; Homo sapiens)?
The IC50 was 14.2 ± 1.18 µM.

For `CCC(CO)Nc1nc2ccccc2c2c(=O)c3cc(Cl)ccc3sc12` (stereo not drawn) [Compound N12, 10-Chloro-6-((1-hydroxybutan-2yl)amino)-12H-thiochromeno[2,3-c]quinolin-12-one], which IC50 ([1]; Homo sapiens) is on record?
Its IC50 is 7.05 ± 2.48 µM.

And the IC50 ([2]; Homo sapiens)?
Its IC50 is 6.74 ± 2.14 µM.

`CC(C)CNc1nc2ccccc2c2c(=O)c3cc(Cl)ccc3sc12` [Compound N5, 10-Chloro-6-isobutylamino-12H-thiochromeno[2,3-c]quinolin-12-one] was tested. Which IC50 ([1]; Homo sapiens) did it give?
The IC50 was greater than 15 µM.

And the IC50 ([2]; Homo sapiens)?
Its IC50 is greater than 15 µM.

`O=c1c2cc(Cl)ccc2sc2c(NC3CCCCC3)nc3ccccc3c12` [Compound N21, 10-Chloro-6-(cyclohexylamino)-12H-thiochromeno[2,3-c]quino lin-12-one] was tested. Which IC50 ([1]; Homo sapiens) did it give?
The IC50 was 7.51 ± 0.22 µM.

And the IC50 ([2]; Homo sapiens)?
The IC50 was 8.06 ± 2.08 µM.

For `COc1ccccc1CNc1nc2ccccc2c2c(=O)c3cc(Cl)ccc3sc12` [Compound N28, 10-Chloro-6-((2-methoxybenzyl)amino)-12H-thiochromeno[2,3-c]quinolin-12-one], which IC50 ([1]; Homo sapiens) is on record?
Its IC50 is 6.01 ± 3.31 µM.

What about the IC50 ([2]; Homo sapiens) of the same compound?
The IC50 was 9.61 ± 4.88 µM.

`O=c1c2cc(Cl)ccc2sc2c(N3CCC(N4CCCCC4)CC3)nc3ccccc3c12` [Compound 18, 6-([1,4'-Bipiperidin]-1'-yl)-10-chloro-12H-thiochromeno[2,3-c]q uinolin-12-one] was tested. Which IC50 ([1]; Homo sapiens) did it give?
The IC50 was 14.2 ± 1.41 µM.

And the IC50 ([2]; Homo sapiens)?
The IC50 was 10.2 ± 2.03 µM.

How did the IC50 ([1]; Homo sapiens) turn out when `COc1cc([C@@H]2c3cc4c(cc3[C@@H](O[C@@H]3O[C@@H]5CO[C@@H](C)O[C@H]5[C@H](O)[C@H]3O)[C@H]3COC(=O)[C@H]23)OCO4)cc(OC)c1O` [Etoposide (VP-16), Etoposide, reference compound] was run?
Its IC50 is 4.33 ± 0.86 µM.

What about the IC50 ([2]; Homo sapiens) of the same compound?
Its IC50 is 0.4 ± 0.01 µM.

For `O=c1c2cc(Cl)ccc2sc2c(NCc3ccccn3)nc3ccccc3c12` [Compound N26, 10-Chloro-6-((pyridin-2-ylmethyl)amino)-12H-thiochromeno[2,3-c]quinolin-12-one], which IC50 ([1]; Homo sapiens) is on record?
The IC50 was 14.2 ± 2.22 µM.

And the IC50 ([2]; Homo sapiens)?
The IC50 was 14.8 ± 1.99 µM.

What does the source list for `O=c1c2cc(Cl)ccc2sc2c(NCCCCCO)nc3ccccc3c12` [Compound N11, 10-Chloro-6-(5-pentanolamino)-12H-thiochromeno[2,3-c]quin olin-12-one]?
IC50 [1]: 8.38 ± 3.39 µM; IC50 [2]: 4.95 ± 0.58 µM

With `O=c1c2cc(Cl)ccc2sc2c(NCCN3CCOCC3)nc3ccccc3c12` [Compound N16, 10-Chloro-6-((2-morpholinoethyl)amino)-12H-thiochromeno[2,3-c]quinolin-12-one] as the compound, how does the IC50 ([1]; Homo sapiens) read?
Its IC50 is greater than 15 µM.

And the IC50 ([2]; Homo sapiens)?
The IC50 was greater than 15 µM.

What does the source list for `O=c1c2cc(Cl)ccc2sc2c(N3CCC(CCCC4CCNCC4)CC3)nc3ccccc3c12` [Compound 19, 10-Chloro-6-(4-(3-(piperidin-4-yl)propyl)piperidin-1yl)-12H-thi ochromeno[2,3-c]quinolin-12-one]?
IC50 ([1]; Homo sapiens): 6.36 ± 0.17 µM; IC50 ([2]; Homo sapiens): 9.02 ± 1.2 µM

What does the source list for `CC[C@@]1(O)C(=O)OCc2c1cc1n(c2=O)Cc2cc3ccccc3nc2-1` [Camptothecin, reference compound]?
IC50 ([1]; Homo sapiens): 0.1 ± 0.01 µM; IC50 ([2]; Homo sapiens): 0.1 ± 0.01 µM

Which IC50 ([1]; Homo sapiens) does the source give for `CCN1CCN(c2nc3ccccc3c3c(=O)c4cc(Cl)ccc4sc23)CC1` [Compound 9, 10-Chloro-6-(4-ethylpiperazin-1-yl)-12H-thiochromeno[2,3-c]q uinolin-12-one] here?
The IC50 was 12 ± 3.41 µM.

What about the IC50 ([2]; Homo sapiens) of the same compound?
The IC50 was greater than 15 µM.

How did the IC50 ([1]; Homo sapiens) turn out when `O=c1c2cc(Cl)ccc2sc2c(NCC3CCCCC3)nc3ccccc3c12` [Compound N24, 10-Chloro-6-((cyclohexylmethyl)amino)-12H-thiochromeno[2,3-c]quinolin-12-one] was run?
The IC50 was 14.8 ± 3.26 µM.

And the IC50 ([2]; Homo sapiens)?
Its IC50 is 13.6 ± 3.88 µM.

`Nc1ccc(CCNc2nc3ccccc3c3c(=O)c4cc(Cl)ccc4sc23)cc1` [Compound N32, 6-((4-Aminophenethyl)amino)-10-chloro-12H-thiochromeno[2,3-c]quinolin-12-one] was tested. Which IC50 ([1]; Homo sapiens) did it give?
Its IC50 is 10.1 ± 0.94 µM.

And the IC50 ([2]; Homo sapiens)?
The IC50 was 13.6 ± 1.39 µM.

Which results are given for `CNc1nc2ccccc2c2c(=O)c3cc(Cl)ccc3sc12` [Compound N1, 10-Chloro-6-methylamino-12H-thiochromeno[2,3-c]quinolin-12-one]?
IC50 ([1]; Homo sapiens): 14.5 ± 2.7 µM; IC50 ([2]; Homo sapiens): 11.7 ± 5.15 µM

What does the source list for `NC(N)=Nc1nc2ccccc2c2c(=O)c3cc(Cl)ccc3sc12` [Compound N33, 2-(10-Chloro-12-oxo-12H-thiochromeno[2,3-c]quinolin-6-yl)gu anidine]?
IC50 ([1]; Homo sapiens): 6.13 ± 6.98 µM; IC50 ([2]; Homo sapiens): 8.11 ± 1.37 µM

How did the IC50 ([1]; Homo sapiens) turn out when `O=c1c2cc(Cl)ccc2sc2c(NN3CCCCC3)nc3ccccc3c12` [Compound N34, 10-Chloro-6-(piperidin-1-ylamino)-12H-thiochromeno[2,3-c]qu inolin-12-one] was run?
The IC50 was 8.22 ± 1.02 µM.

And the IC50 ([2]; Homo sapiens)?
The IC50 was 9.06 ± 1.95 µM.

How did the IC50 ([1]; Homo sapiens) turn out when `CCNc1nc2ccccc2c2c(=O)c3cc(Cl)ccc3sc12` [Compound N2, 10-Chloro-6-ethylamino-12H-thiochromeno[2,3-c]quinolin-12-one] was run?
Its IC50 is 5.18 ± 2.2 µM.

What about the IC50 ([2]; Homo sapiens) of the same compound?
The IC50 was 6.7 ± 1.62 µM.

What does the source list for `O=c1c2cc(Cl)ccc2sc2c(N3CCC(O)CC3)nc3ccccc3c12` [Compound 16, 10-Chloro-6-(4-hydroxypiperidin-1-yl)-12H-thiochromeno[2,3-c]quinolin-12-one]?
IC50 ([1]; Homo sapiens): 9.55 ± 2.42 µM; IC50 ([2]; Homo sapiens): 11.1 ± 4.18 µM

Which results are given for `O=c1c2cc(Cl)ccc2sc2c(NC3Cc4ccccc4C3)nc3ccccc3c12` [Compound N20, 10-Chloro-6-((2,3-dihydro-1H-inden-2-yl)amino)-12H-thiochro meno[2,3-c]quinolin-12-one]?
IC50 ([1]; Homo sapiens): 6.2 ± 2.52 µM; IC50 ([2]; Homo sapiens): 4.86 ± 0.99 µM

How did the IC50 ([1]; Homo sapiens) turn out when `O=c1c2cc(Cl)ccc2sc2c(NCCc3ccccc3)nc3ccccc3c12` [Compound N30, 10-Chloro-6-(phenethylamino)-12H-thiochromeno[2,3-c]quinol in-12-one] was run?
Its IC50 is greater than 15 µM.

What about the IC50 ([2]; Homo sapiens) of the same compound?
The IC50 was greater than 15 µM.

Which IC50 ([1]; Homo sapiens) does the source give for `O=C1CCCCN1c1nc2ccccc2c2c(=O)c3cc(Cl)ccc3sc12` [Compound 21, 10-chloro-6-(2-oxopiperidin-1-yl)-12H-thiochromeno[2,3-c]quin olin-12-one] here?
The IC50 was 9.55 ± 2.42 µM.

What about the IC50 ([2]; Homo sapiens) of the same compound?
The IC50 was 11.1 ± 4.18 µM.

Which results are given for `CCCCNc1nc2ccccc2c2c(=O)c3cc(Cl)ccc3sc12` [Compound N4, 6-(Butylamino)-10-chloro-12H-thiochromeno[2,3-c]quinolin-1 2-one]?
IC50 ([1]; Homo sapiens): 10.1 ± 1.32 µM; IC50 ([2]; Homo sapiens): 10.3 ± 2.46 µM

What does the source list for `CCC(CC)Nc1nc2ccccc2c2c(=O)c3cc(Cl)ccc3sc12` [Compound N6, 10-Chloro-6-(pentan-3-ylamino)-12H-thiochromeno[2,3-c]quin olin-12-one]?
IC50 ([1]; Homo sapiens): > 15 µM; IC50 ([2]; Homo sapiens): > 15 µM

Which results are given for `O=c1c2cc(Cl)ccc2sc2c(N3CCCCC3)nc3ccccc3c12` [Compound 15, 10-Chloro-6-(piperidin-1-yl)-12H-thiochromeno[2,3-c]quinolin-12-one]?
IC50 ([1]; Homo sapiens): > 15 µM; IC50 ([2]; Homo sapiens): 13.4 ± 2.87 µM

What does the source list for `O=c1c2cc(Cl)ccc2sc2c(NCc3cccs3)nc3ccccc3c12` [Compound N23, 10-Chloro-6-((thiophen-2ylmethyl)amino)-12H-thiochromeno[2,3-c]quinolin-12-one]?
IC50 ([1]; Homo sapiens): > 15 µM; IC50 ([2]; Homo sapiens): 14.7 ± 3.84 µM

`O=c1c2cc(Cl)ccc2sc2c(NCCO)nc3ccccc3c12` [Compound N9, 10-Chloro-6-(2-ethanolamino)-12H-thiochromeno[2,3-c]quinol in-12-one] was tested. Which IC50 [1] did it give?
The IC50 was 7.48 ± 3.35 µM.

What about the IC50 [2] of the same compound?
Its IC50 is 11.6 ± 7.23 µM.

What does the source list for `COc1ccc(CCNc2nc3ccccc3c3c(=O)c4cc(Cl)ccc4sc23)cc1` [Compound N31, 10-Chloro-6-((4-methoxyphenethyl)amino)-12H-thiochromeno[2,3-c]quinolin-12-one]?
IC50 ([1]; Homo sapiens): > 15 µM; IC50 ([2]; Homo sapiens): > 15 µM
